Assay results: patent US20230406865A1, “CRYSTAL FORM OF FREE BASE OF INHIBITOR CONTAINING BICYCLIC RING DERIVATIVE AND PREPARATION METHOD AND APPLICATION OF CRYSTAL FORM” (SHANGHAI HANSOH BIOMEDICAL CO., LTD., priority 2020, published 2023)

Experiments:
[1] = biological target: T1, KDR kinase (Homo sapiens, UniProt P35968); assay: HTRF kinase activity inhibition, KDR; format: biochemical; conditions: for IC50: HTRF, ATP at Km; for Ratio (KDR/RET): KDR IC50 / RET IC50
T1 construct: purchased Carna 08-191
T1 sequence (P35968 20-1356): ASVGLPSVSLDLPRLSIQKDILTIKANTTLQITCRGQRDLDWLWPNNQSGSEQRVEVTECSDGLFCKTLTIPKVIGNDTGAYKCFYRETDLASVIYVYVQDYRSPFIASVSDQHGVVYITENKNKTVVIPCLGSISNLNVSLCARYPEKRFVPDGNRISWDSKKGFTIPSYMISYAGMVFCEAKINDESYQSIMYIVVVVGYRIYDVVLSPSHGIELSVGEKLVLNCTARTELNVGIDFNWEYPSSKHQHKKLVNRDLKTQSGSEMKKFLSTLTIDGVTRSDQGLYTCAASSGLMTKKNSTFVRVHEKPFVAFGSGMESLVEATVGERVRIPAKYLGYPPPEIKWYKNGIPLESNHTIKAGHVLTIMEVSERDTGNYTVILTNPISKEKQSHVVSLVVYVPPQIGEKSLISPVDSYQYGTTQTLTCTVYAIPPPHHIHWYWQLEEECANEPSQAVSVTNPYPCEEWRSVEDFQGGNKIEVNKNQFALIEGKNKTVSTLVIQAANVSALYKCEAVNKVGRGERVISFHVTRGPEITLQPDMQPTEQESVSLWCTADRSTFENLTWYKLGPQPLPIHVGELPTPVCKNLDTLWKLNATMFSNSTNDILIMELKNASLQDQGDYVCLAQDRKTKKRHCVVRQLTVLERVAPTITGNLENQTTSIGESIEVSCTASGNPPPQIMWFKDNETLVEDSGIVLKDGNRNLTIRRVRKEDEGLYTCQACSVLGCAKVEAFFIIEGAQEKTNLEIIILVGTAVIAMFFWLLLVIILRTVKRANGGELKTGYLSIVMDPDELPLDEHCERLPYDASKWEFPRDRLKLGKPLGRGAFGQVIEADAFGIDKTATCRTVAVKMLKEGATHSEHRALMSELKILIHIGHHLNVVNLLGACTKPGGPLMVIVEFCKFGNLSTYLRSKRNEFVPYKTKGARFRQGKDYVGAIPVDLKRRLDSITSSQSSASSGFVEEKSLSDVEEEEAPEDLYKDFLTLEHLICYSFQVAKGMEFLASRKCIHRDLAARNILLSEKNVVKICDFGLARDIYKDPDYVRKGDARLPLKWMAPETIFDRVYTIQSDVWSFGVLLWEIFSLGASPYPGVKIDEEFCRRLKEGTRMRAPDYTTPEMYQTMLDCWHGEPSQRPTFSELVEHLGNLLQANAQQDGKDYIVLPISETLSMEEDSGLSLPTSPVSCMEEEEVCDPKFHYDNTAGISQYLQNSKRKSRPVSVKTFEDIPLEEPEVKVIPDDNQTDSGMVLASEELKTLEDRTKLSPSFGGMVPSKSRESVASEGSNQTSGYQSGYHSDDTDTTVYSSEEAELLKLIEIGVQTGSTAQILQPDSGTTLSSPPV
How it was run: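 Inhibition of KDR kinase activity measured by homogeneous time-resolved fluorescence with a tyrosine-kinase KinEASE substrate kit and ATP.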

[2] = test system: TT cells (MTC, RET C634W); assay: Inhibition of proliferation of TT cells (CellTiter-Glo, 72 h); format: cell-based; conditions: Homo sapiens
Method: TT cells were purchased from the cell bank of the Chinese Academy of Sciences.
When TT cells were cultured to the appropriate fusion level, TT cells were collected, and the cells were adjusted to the appropriate cell concentration using complete medium, and the cell suspension was spread in a 96-well plate, 90 μL per well, and placed to the wall of a 37° C., 5% CO2 incubator overnight; and compound solutions of different concentrations were prepared using DMSO and culture medium; and a solvent control was set, the compound solution was added to a 96-well plate, 10 μL per well, and placed to the wall of a 37° C., 5% CO2 incubator for 72 hours; CellTiter-Glo solution was added thereto and the mixture was mixed well by shaking, incubated for 10 minutes in the dark, and read by BioTek Synergy H1 microplate reader.
The IC50 values were obtained by using luminescence signal values to calculate the inhibition rate, the concentration and the inhibition rate were fitted to a nonlinear regression curve using Graphpad Prism software.

[3] = biological target: T2, Ba/F3 KIF5B-RET cells (Homo sapiens, UniProt P07949); assay: Inhibition of proliferation of Ba/F3 KIF5B-RET cells (CellTiter-Glo); format: cell-based; conditions: 72 to 144 hours
T2 construct: fused on or other part: P33176 (Kinesin-1 heavy chain)
T2 sequence (P07949 whole entry, change not shown, the tested form may be a part): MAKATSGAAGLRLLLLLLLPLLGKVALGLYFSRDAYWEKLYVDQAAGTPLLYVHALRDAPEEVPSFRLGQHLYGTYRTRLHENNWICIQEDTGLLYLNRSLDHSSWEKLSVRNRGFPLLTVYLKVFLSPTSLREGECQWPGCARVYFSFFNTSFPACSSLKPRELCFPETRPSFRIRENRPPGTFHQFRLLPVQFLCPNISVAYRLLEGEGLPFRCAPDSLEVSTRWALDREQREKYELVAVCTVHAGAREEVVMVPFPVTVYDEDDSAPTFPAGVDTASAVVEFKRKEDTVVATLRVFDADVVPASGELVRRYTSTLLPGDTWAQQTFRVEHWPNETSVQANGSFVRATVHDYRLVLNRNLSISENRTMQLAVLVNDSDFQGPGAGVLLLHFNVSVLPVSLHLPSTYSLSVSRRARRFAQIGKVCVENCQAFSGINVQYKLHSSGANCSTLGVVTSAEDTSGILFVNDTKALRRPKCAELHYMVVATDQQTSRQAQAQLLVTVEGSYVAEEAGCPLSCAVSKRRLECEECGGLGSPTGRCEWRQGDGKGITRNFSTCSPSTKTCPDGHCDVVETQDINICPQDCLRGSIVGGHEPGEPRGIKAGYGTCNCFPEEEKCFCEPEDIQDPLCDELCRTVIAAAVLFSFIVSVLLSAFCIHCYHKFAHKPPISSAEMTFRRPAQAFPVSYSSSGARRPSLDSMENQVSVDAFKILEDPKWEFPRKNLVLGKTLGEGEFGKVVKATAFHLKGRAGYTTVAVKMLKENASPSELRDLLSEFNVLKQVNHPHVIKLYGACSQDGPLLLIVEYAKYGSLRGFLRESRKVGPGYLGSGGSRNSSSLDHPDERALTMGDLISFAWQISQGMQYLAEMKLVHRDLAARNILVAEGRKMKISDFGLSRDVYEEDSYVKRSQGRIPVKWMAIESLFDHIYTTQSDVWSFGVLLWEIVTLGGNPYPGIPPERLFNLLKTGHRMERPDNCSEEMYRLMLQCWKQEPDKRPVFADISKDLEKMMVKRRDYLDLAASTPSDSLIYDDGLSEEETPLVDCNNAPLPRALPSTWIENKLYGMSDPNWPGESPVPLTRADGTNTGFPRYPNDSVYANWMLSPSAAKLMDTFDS
Method: When Ba/F3 KIF5B-RET cells were cultured to the appropriate cell density, cells were collected, and the cells were adjusted to the appropriate cell concentration using complete medium, and the cell suspension was spread in a 96-well plate, 90 μL per well, and placed in the wall of a 37° C., 5% CO2 incubator overnight; compound solutions of different concentrations were prepared using DMSO and culture medium; a solvent control was set, and the compound solution was added to a 96-well plate with […] at 37° C. in a 5% CO2 incubator for 72 to 144 hours, CellTiter-Glo solution was added thereto and mixed well by shaking, incubated for 10 minutes in the dark, and read by BioTek Synergy H1 microplate reader.
The IC50 values were obtained by using the luminescence signal values to calculate the inhibition rate, the concentrations and the inhibition rates were fitted to a nonlinear regression curve using Graphpad Prism software.

[4] = biological target: T3, RET kinase (Homo sapiens, UniProt P07949); assay: HTRF kinase activity inhibition, RET wild-type; format: biochemical; conditions: ATP at Km
T3 construct: purchased Carna 08-159
T3 sequence (P07949 29-1114): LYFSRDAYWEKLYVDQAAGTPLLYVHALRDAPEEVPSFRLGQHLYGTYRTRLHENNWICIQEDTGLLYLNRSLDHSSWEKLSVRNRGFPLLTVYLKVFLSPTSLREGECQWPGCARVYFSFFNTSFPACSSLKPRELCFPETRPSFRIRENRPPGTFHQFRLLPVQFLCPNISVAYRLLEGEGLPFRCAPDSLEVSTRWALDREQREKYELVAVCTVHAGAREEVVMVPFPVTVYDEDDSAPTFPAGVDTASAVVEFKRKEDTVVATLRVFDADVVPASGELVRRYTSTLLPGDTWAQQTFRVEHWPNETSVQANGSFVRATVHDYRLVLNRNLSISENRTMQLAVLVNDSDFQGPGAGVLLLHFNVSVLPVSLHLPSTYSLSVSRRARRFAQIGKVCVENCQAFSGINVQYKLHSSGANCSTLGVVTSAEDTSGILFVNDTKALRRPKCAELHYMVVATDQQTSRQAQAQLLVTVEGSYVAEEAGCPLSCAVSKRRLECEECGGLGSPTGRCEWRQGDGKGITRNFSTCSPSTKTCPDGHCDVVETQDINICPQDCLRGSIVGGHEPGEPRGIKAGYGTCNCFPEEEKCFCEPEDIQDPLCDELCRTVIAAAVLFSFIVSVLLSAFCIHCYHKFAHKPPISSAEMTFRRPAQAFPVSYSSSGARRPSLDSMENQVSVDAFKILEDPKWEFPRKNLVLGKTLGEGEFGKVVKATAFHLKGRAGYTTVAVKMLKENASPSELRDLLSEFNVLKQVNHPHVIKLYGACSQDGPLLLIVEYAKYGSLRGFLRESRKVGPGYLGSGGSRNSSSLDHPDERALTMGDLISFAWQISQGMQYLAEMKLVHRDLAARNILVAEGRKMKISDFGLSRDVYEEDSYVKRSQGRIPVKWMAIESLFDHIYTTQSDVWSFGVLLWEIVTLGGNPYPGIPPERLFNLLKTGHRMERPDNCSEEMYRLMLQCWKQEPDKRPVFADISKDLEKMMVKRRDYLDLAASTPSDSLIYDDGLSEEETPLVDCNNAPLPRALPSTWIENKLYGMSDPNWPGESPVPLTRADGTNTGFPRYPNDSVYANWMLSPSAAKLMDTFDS
How it was run: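 HTRF (KinEASE-TK) kinase assay with recombinant RET wild-type, RET V804M, RET V804L and KIF5B-RET enzymes plus ATP.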

[5] = Balb/C mouse pharmacokinetics, oral 5 mg/kg; format: in vivo, Balb/C mice; conditions: male, p.o. 5 mg/kg, plasma; for MRT: read-out: Average residence time MRT; for Cmax: read-out: Blood concentration Cmax; for AUC(0-t): read-out: Curve area AUC0-t; for AUC(0-inf): read-out: Curve area AUC0-∞; for half-life: read-out: Half-life t1/2 (converted); for Tmax: read-out: Peak time tmax
Method: The pharmacokinetic behavior of the following compound embodiments, administered orally at a dose of 5 mg/kg in plasma in mice, was studied using Balb/C mice as test animals.
Balb/C Mouse 6/embodiment, male, Shanghai Jiesijie Laboratory Animal Co., Ltd, Animal Production License No. (SCXK (Shanghai) 2013-0006 N0.311620400001794).
Balb/C mice, males; p.o. after overnight fasting, respectively, at a dose of 5 mg/kg, administered in a volume of 10 mL/kg.
0.5% CMC-Na (1% Tween80) was dissolved by ultrasound, and prepared into clear solution or uniform suspension.
Before and after administration, 0.1 mL of blood was collected from mice at 0, 0.5, 1, 2, 4, 6, 8 and 24 hours by orbital collection, placed in EDTA-K2 tubes, centrifuged at 6000 rpm at 4° C. for 6 minutes to separate plasma, and stored at −80° C.
2.5 Sample Handling: • 1) 40 μL of plasma sample was precipitated by adding 160 μL of acetonitrile, mixed and centrifuged at 3500×g for 5-20 minutes. • 2) 100 μL of the supernatant solution after treatment was taken to analyze the concentration of the test compound by LC/MS/MS.
2.6 Liquid Phase Analysis • Liquid phase conditions: Shimadzu LC-20AD pump • Mass spectrometry conditions: AB Sciex API 4000 mass spectrometer • Chromatographic column: phenomenex Gemiu 5 μM C18 50×4.6 mm • Mobile phase: Liquid A was 0.1% formic acid aqueous solution, liquid B was acetonitrile • Flow rate: 0.8 mL/min • Elution time: 0-4.0 minutes, the eluent was as follows:
The main pharmacokinetic parameters were calculated by WinNonlin 6.1 and the results of the mouse pharmacokinetic experiments were shown in Table 13 below.

Row | Compound | IC50 [1] [nM] | Ratio (KDR/RET) [1] | IC50 [2] [nM] | IC50 [3] [nM] | IC50 [4] [nM] | MRT [5] [h] | Cmax [5] [ng/mL] | AUC(0-t) [5] [ng·h/mL] | AUC(0-inf) [5] [ng·h/mL] | half-life [5] [h] | Tmax [5] [h]
1 | COc1ccc(CN2C3CC2CN(c2ccc(-c4cc(OCC[S+](C)[O-])cn5ncc(C#N)c45)cn2)C3)cn1 (stereo not shown) [Embodiment 1, 4-(6-(6-((6-Methoxypyridin-3-yl)methyl)-3,6-diazabicyclo[3.1.1]heptan-3-yl)pyridin-3-yl)-6-(2-(methylsulfinyl)ethoxy)pyrazolo[1,5-a]pyridine-3-carbonitrile] | 28 | 59 | 11.5 | 24.6 | 0.47 | – | – | – | – | – | –
2 | COc1ccc(CN2C3CC2CN(c2ccc(-c4cc(OCC(C)(C)C#N)cn5ncc(C#N)c45)cn2)C3)cn1 [Embodiment 9, 6-(2-Cyano-2-methylpropoxy)-4-(6-(6-((6-methoxypyridin-3-yl)methyl)-3,6-diazabicyclo[3.1.1]heptan-3-yl)pyridin-3-yl)pyrazolo[1,5-a]pyridine-3-carbonitrile] | 70 | 92 | 29.3 | 28.9 | 0.76 | 5.84 | 1920 | 16100 | 16400 | 4.2 | 0.5
3 | COc1ccc(CN2C3CC2CN(c2ccc(-c4cc(C#C[C@@H](C)O)cn5ncc(C#N)c45)cn2)C3)cn1 [Embodiment 22, 6-((R)-3-Hydroxybut-1-yn-1-yl)-4-(6-(6-((6-methoxypyridin-3-yl)methyl)-3,6-diazabicyclo[3.1.1]heptan-3-yl)pyridin-3-yl)pyrazolo[1,5-a]pyridine-3-carbonitrile] | 24 | 75 | 20.7 | 16.9 | 0.32 | – | – | – | – | – | –
4 | COc1ccc(CN2C3CC2CN(c2ccc(-c4cc(OC[C@H]5C[C@@](C)(O)C5)cn5ncc(C#N)c45)cn2)C3)cn1 [Embodiment 44, 6-((Cis-3-hydroxy-3-methylcyclobutyl)methoxy)-4-(6-(6-((6-methoxypyridin-3-yl)methyl)-3,6-diazabicyclo[3.1.1]heptan-3-yl)pyridin-3-yl)pyrazolo[1,5-a]pyridine-3-carbonitrile] | – | – | 12.2 | 15.3 | – | 5.22 | 1620 | 14000 | 14000 | 3.45 | 0.5
5 | COc1ccc(CN2C3CC2CN(c2ccc(-c4cc(OCC56CC(C#N)(C5)C6)cn5ncc(C#N)c45)cn2)C3)cn1 [Embodiment 53, 6-((3-Cyanobicyclo[1.1.1]pentan-1-yl)methoxy)-4-(6-(6-((6-methoxypyridin-3-yl)methyl)-3,6-diazabicyclo[3.1.1]heptan-3-yl)pyridin-3-yl)pyrazolo[1,5-a]pyridine-3-carbonitrile] | 21.6 | 27 | 24.7 | 30.6 | 0.8 | – | – | – | – | – | –
6 | COc1ncc(CN2C3CC2CN(c2ccc(-c4cc(OCC5(C#N)CC5)cn5ncc(C#N)c45)cn2)C3)cc1F [Embodiment 55, 6-((1-Cyanocyclopropyl)methoxy)-4-(6-(6-((5-fluoro-6-methoxypyridin-3-yl)methyl)-3,6-diazabicyclo[3.1.1]heptan-3-yl)pyridin-3-yl)pyrazolo[1,5-a]pyridine-3-carbonitrile] | 37.5 | 121 | 28.5 | 19.6 | 0.31 | 6.51 | 1940 | 21600 | 22100 | 4.26 | 2
7 | COc1ncc(CN2C3CC2CN(c2ccc(-c4cc(OCC5(C#N)CCOCC5)cn5ncc(C#N)c45)cn2)C3)cc1F [Embodiment 60, 6-((4-Cyanotetrahydro-2H-pyran-4-yl)methoxy)-4-(6-(6-((5-fluoro-6-methoxypyridin-3-yl)methyl)-3,6-diazabicyclo[3.1.1]heptan-3-yl)pyridin-3-yl)pyrazolo[1,5-a]pyridine-3-carbonitrile] | 257 | 445 | 28.4 | 18 | 0.58 | 5.56 | 3080 | 28000 | 28200 | 3.26 | 0.5
8 | COc1ccc(CN2C3CC2CN(c2ccc(-c4cc(OCC56CC(C(N)=O)(C5)C6)cn5ncc(C#N)c45)cn2)C3)cn1 [Embodiment 66, 3-(((3-Cyano-4-(6-(6-((6-methoxypyridin-3-yl)methyl)-3,6-diazabicyclo[3.1.1]heptan-3-yl)pyridin-3-yl)pyrazolo[1,5-a]pyridin-6-yl)oxy)methyl)bicyclo[1.1.1]pentane-1-carboxamide] | 3 | 12 | 5.18 | 14.8 | 0.25 | – | – | – | – | – | –
9 | CNC(=O)C12CC(COc3cc(-c4ccc(N5CC6CC(C5)N6Cc5ccc(OC)nc5)nc4)c4c(C#N)cnn4c3)(C1)C2 [Embodiment 67, 3-(((3-Cyano-4-(6-(6-((6-methoxypyridin-3-yl)methyl)-3,6-diazabicyclo[3.1.1]heptan-3-yl)pyridin-3-yl)pyrazolo[1,5-a]pyridin-6-yl)oxy)methyl)-N-methylbicyclo[1.1.1]pentane-1-carboxamide] | 4 | 16 | 6.84 | 5.33 | 0.25 | – | – | – | – | – | –
10 | COc1ncc(CN2C3CC2CN(c2ccc(-c4cc(OCC5CC(C)(O)C5)cn5ncc(C#N)c45)cn2)C3)cc1F (stereo not drawn) [Embodiment 72, 4-(6-(6-((5-Fluoro-6-methoxypyridin-3-yl)methyl)-3,6-diazabicyclo[3.1.1]heptan-3-yl)pyridin-3-yl)-6-((cis-3-hydroxy-3-methylcyclobutyl)methoxy)pyrazolo[1,5-a]pyridine-3-carbonitrile] | 7.4 | 20 | 13.9 | 8.59 | 0.37 | – | – | – | – | – | –
11 | CC1(O)CN(c2cc(-c3ccc(N4CCC(C)(NC(=O)c5ncccc5Cl)CC4)nc3)c3c(C#N)cnn3c2)C1 [Embodiment 95, 3-Chloro-N-(1-(5-(3-cyano-6-(3-hydroxy-3-methylazetidin-1-yl)pyrazolo[1,5-a]pyridin-4-yl)pyridin-2-yl)-4-methylpiperidin-4-yl)picolinamide] | 24 | 24 | 15 | 22.5 | 1 | – | – | – | – | – | –
